Measurements: patent US10709709B2, “Substituted carbonucleoside derivatives useful as anticancer agents” (Pfizer Inc., priority 2016, dated 2020)

molecular target: PRMT5/MEP50 protein complex (Homo sapiens (Human), UniProt O14744); test: PRMT5 biochemical assay (3H-SAM methylation of H4(1-21) peptide, filter plate scintillation); conditions: 10 nM PRMT5/MEP50 complex, 200 nM H4(1-21) peptide, 1 uM SAM, 25 minute incubation at room temperature
Procedure: Biochemical Assay Methods
Compounds were solubilized in DMSO and serially diluted, using 3-fold dilutions, into 100% DMSO at a concentration 50-fold greater than the desired assay concentration. Following dilution, 1 ul was added to an empty 96-well microtiter plate. PRMT5/MEP50 protein complex was combined with H4(1-21) peptide ([…]) in PRMT5 assay buffer (50 mM Tris pH 8.5, 50 mM NaCl, 5 mM MgCl2, 1 mM EDTA, 1 mM TCEP) and 44 ul was added to the microtiter plate containing compound. S-Adenosyl-L-methionine (SAM) was prepared by combining ^3H labelled SAM with unlabelled SAM in PRMT5 assay buffer such that the final SAM concentration was 10 uM and the specific activity was 0.2 uCi/ul. The reaction was initiated by adding 5 ul of SAM stock to the microtiter plate. The final reaction conditions were 10 nM PRMT5/MEP50 complex, 200 nM peptide and 1 uM SAM. Following a 25 minute incubation at room temperature, the reaction was stopped with the addition of 100 uL of 20% TCA. The 3H-peptide product was captured using a 96-well filter plate (MSIPN4B, Millipore) and washed 5 times with PBS buffer. Scintillation fluid (100 ul) was added to the dried filter plate and counted in a liquid scintillation counter. IC50 values were determined by fitting the data to the standard 4-parameter dose response equation using Pfizer proprietary software.
Results for the biochemical assay of examples are summarized in Table 1, shown as IC50 values in μM.

Chain of PRMT5/MEP50 protein complex (O14744 other isoform, or with tags, fused parts or gaps): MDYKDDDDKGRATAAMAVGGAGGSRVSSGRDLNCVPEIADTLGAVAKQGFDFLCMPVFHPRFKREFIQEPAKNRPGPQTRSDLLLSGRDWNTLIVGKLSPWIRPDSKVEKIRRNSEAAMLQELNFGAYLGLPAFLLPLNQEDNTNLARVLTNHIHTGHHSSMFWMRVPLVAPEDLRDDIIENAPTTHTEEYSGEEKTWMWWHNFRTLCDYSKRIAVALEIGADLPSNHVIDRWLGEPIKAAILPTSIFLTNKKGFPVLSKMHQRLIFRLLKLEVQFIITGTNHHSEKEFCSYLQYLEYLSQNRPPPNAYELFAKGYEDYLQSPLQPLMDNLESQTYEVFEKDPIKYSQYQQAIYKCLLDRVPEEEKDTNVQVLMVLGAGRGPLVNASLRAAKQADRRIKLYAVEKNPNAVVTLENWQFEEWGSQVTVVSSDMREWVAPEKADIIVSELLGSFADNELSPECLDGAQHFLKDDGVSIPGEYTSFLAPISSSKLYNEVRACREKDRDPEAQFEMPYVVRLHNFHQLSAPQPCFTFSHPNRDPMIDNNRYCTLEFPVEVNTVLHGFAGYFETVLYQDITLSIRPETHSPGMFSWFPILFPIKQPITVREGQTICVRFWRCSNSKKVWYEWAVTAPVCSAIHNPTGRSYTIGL
Chain of PRMT5/MEP50 protein complex (Q9BQA1 whole entry partner): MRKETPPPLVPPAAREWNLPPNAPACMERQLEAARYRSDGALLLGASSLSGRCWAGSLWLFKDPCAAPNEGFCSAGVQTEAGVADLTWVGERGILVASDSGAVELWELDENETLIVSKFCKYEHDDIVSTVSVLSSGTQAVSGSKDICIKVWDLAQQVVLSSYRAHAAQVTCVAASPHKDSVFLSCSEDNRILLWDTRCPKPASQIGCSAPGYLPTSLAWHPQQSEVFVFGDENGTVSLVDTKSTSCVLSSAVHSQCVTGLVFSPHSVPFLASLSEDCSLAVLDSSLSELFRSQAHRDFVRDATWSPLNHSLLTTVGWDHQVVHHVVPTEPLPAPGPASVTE

Row | IC50 [µM] | Structure (SMILES)
1 | 2.7 | Cc1nccc(N(C)[C@@H]2C[C@H]([C@@H](O)c3ccc(F)c(F)c3)[C@@H](O)[C@H]2O)n1 [Example 36, (1S,2R,3R,5R)-3-[(R)-(3,4-difluorophenyl)(hydroxy)methyl]-5-[methyl(2-methylpyrimidin-4-yl)amino] cyclopentane-1,2-diol]
2 | 0.266 | CN(c1ncnc(N)n1)[C@@H]1C[C@H]([C@H](O)c2ccc(F)c(F)c2)[C@@H](O)[C@H]1O [Example 37, (1R,2S,3R,5R)-3-[(4-amino-1,3,5-triazin-2-yl)(methyl)amino]-5-[(S)-(3,4-difluorophenyl) (hydroxy)methyl]cyclopentane-1,2-diol]
3 | 15.7 | CN(c1ncnc(N)n1)[C@@H]1C[C@H]([C@@H](O)c2ccc(F)c(F)c2)[C@@H](O)[C@H]1O [Example 38, (1R,2S,3R,5R)-3-[(4-amino-1,3,5-triazin-2-yl)(methyl)amino]-5-[(R)-(3,4-difluorophenyl)(hydroxy)methyl]cyclopentane-1,2-diol]
4 | 0.114 | CN(c1ccnc(N)n1)[C@@H]1C[C@H]([C@H](O)c2ccc(F)c(F)c2)[C@@H](O)[C@H]1O [Example 39, (1R,2S,3R,5R)-3-[(2-aminopyrimidin-4-yl)(methyl)amino]-5-[(S)-(3,4-difluorophenyl)(hydroxy)methyl] cyclopentane-1,2-diol]
5 | 2.04 | CN(c1ccnc(N)n1)[C@@H]1C[C@H]([C@@H](O)c2ccc(F)c(F)c2)[C@@H](O)[C@H]1O [Example 40, (1R,2S,3R,5R)-3-[(2-aminopyrimidin-4-yl)(methyl)amino]-5-[(R)-(3,4 difluorophenyl)(hydroxy)methyl] cyclopentane-1,2-diol]
6 | 0.046 | Cc1nc(N)nc(N(C)[C@@H]2C[C@H]([C@H](O)c3ccc(F)c(F)c3)[C@@H](O)[C@H]2O)n1 [Example 41, (1R,2S,3R,5R)-3-[(4-amino-6-methyl-1,3,5-triazin-2-yl)(methyl)amino]-5-[(S)-(3,4-difluorophenyl) (hydroxy)methyl]cyclopentane-1,2-diol]
7 | 1.39 | Cc1nc(N)nc(N(C)[C@@H]2C[C@H]([C@@H](O)c3ccc(F)c(F)c3)[C@@H](O)[C@H]2O)n1 [Example 42, (1R,2S,3R,5R)-3-[(4-amino-6-methyl-1,3,5-triazin-2-yl)(methyl)amino]-5-[(R)-(3,4-difluorophenyl) (hydroxy)methyl]cyclopentane-1,2-diol]
8 | 0.879 | CN(c1cc(N)ncn1)[C@@H]1C[C@H]([C@H](O)c2ccc(F)c(F)c2)[C@@H](O)[C@H]1O [Example 43, (1R,2S,3R,5R)-3-[(6-aminopyrimidin-4-yl)(methyl)amino]-5-[(S)-(3,4-difluorophenyl) (hydroxy)methyl]cyclopentane-1,2-diol]
9 | 17 | CN(c1cc(N)ncn1)[C@@H]1C[C@H]([C@@H](O)c2ccc(F)c(F)c2)[C@@H](O)[C@H]1O [Example 44, (1R,2S,3R,5R)-3-[(6-aminopyrimidin-4-yl)(methyl)amino]-5-[(R)-(3,4-difluorophenyl)(hydroxy)methyl]cyclopentane-1,2-diol]
10 | 0.105 | Cc1nc(N)nc2c1ccn2[C@@H]1C[C@H]([C@@H](O)c2ccc(F)c(F)c2)[C@@H](O)[C@H]1O [Example 49, (1R,2S,3R,5R)-3-(2-amino-4-methyl-7H-pyrrolo[2,3-d]pyrimidin-7-yl)-5-[(R)-(3,4-difluorophenyl)(hydroxy)methyl]cyclopentane-1,2-diol]
11 | 0.676 | Cc1ncnc2c1ccn2[C@@H]1C[C@H]([C@H](CN)c2ccc(F)cc2)[C@@H](O)[C@H]1O [Example 51, (1S,2R,3R,5R)-3-[(1S)-2-amino-1-(4-fluorophenyl)ethyl]-5-(4-methyl-7H-pyrrolo[2,3-d]pyrimidin-7-yl)cyclopentane-1,2-diol]
12 | 0.906 | Cc1ncnc2c1ccn2[C@@H]1C[C@H]([C@@H](CN)c2ccc(F)cc2)[C@@H](O)[C@H]1O [Example 52, (1S,2R,3R,5R)-3-[(1R)-2-amino-1-(4-fluorophenyl)ethyl]-5-(4-methyl-7H-pyrrolo[2,3-d]pyrimidin-7-yl)cyclopentane-1,2-diol]
13 | 0.126 | Cc1ncnc2c1ccn2[C@@H]1C[C@H]([C@@H](O)c2ccc(Cl)cc2CN)[C@@H](O)[C@H]1O [Example 54, (1S,2R,3R,5R)-3-((R)-(2-(aminomethyl)-4-chlorophenyl)(hydroxy)methyl)-5-(4-methyl-7H-pyrrolo[2,3-d]pyrimidin-7-yl)cyclopentane-1,2-diol]

Second part, the compound before the results:

Row | Structure (SMILES) | IC50 [µM]
14 | Cc1ncnc(N(C)[C@@H]2C[C@H]([C@H](O)c3ccc(F)c(F)c3)[C@@H](O)[C@H]2O)n1 [Example 46, (1S,2R,3R,5R)-3-[(S)-(3,4-difluorophenyl)(hydroxy)methyl]-5-[methyl(4-methyl-1,3,5-triazin-2-yl)amino]cyclopentane-1,2-diol] | 0.297
15 | Cc1ncnc(N(C)[C@@H]2C[C@H]([C@@H](O)c3ccc(F)c(F)c3)[C@@H](O)[C@H]2O)n1 [Example 47, (1S,2R,3R,5R)-3-[(R)-(3,4-difluorophenyl)(hydroxy)methyl]-5-[methyl(4-methyl-1,3,5-triazin-2-yl)amino]cyclopentane-1,2-diol] | 29.5
16 | Cc1ncnc2c1ccn2[C@@H]1C[C@H](C(F)(CN)c2ccc(F)cc2)[C@@H](O)[C@H]1O (stereo partly drawn) [Example 50, (1S,2R,3S,5R)-3-[2-amino-1-fluoro-1-(4-fluorophenyl)ethyl]-5-(4-methyl-7H-pyrrolo[2,3-d]pyrimidin-7-yl)cyclopentane-1,2-diol] | 18.9
17 | Cc1ncnc2c1ccn2[C@@H]1C[C@H]([C@@H](O)c2cccc3c2CNCC3)[C@@H](O)[C@H]1O [Example 57, (1S,2R,3R,5R)-3-((R)-hydroxy(1,2,3,4-tetrahydroisoquinolin-8-yl)methyl)-5-(4-methyl-7H-pyrrolo[2,3-d]pyrimidin-7-yl)cyclopentane-1,2-diol] | 0.048
18 | Cc1ncnc2c1ccn2[C@@H]1C[C@H](Cc2ccc(F)cc2)[C@@H](O)[C@H]1O [Example 58, (1S,2R,3S,5R)-3-(4-fluorobenzyl)-5-(4-methyl-7H-pyrrolo[2,3-d]pyrimidin-7-yl)cyclopentane-1,2-diol] | 0.289
19 | CO[C@H]1C[C@@H](n2ccc3c(C)ncnc32)[C@H](O)[C@@H]1O [Example 60, (1S,2S,3S,5R)-3-methoxy-5-(4-methyl-7H-pyrrolo[2,3-d]pyrimidin-7-yl)cyclopentane-1,2-diol] | > 200
20 | CO[C@@H]1C[C@H](n2ccc3c(C)ncnc32)[C@@H](O)[C@H]1O [Example 61, (1R,2R,3R,5S)-3-methoxy-5-(4-methyl-7H-pyrrolo[2,3-d]pyrimidin-7-yl)cyclopentane-1,2-diol] | 2.12
21 | Cc1ncnc2c1ccn2[C@@H]1C[C@H](Oc2ccccc2CN)[C@@H](O)[C@H]1O [Example 62, (1S,2S,3S,5R)-3-(2-(aminomethyl)phenoxy)-5-(4-methyl-7H-pyrrolo[2,3-d]pyrimidin-7-yl)cyclopentane-1,2-diol] | 0.025
22 | Cc1ncnc2c1ccn2[C@H]1C[C@@H](Oc2ccccc2CN)[C@H](O)[C@@H]1O [Example 63, (1R,2R,3R,5S)-3-(2-(aminomethyl)phenoxy)-5-(4-methyl-7H-pyrrolo[2,3-d]pyrimidin-7-yl)cyclopentane-1,2-diol] | 1.06
23 | Cc1ncnc2c1ccn2[C@@H]1C[C@H](Oc2ccccc2C#N)[C@@H](O)[C@H]1O [Example 64, 2-(((1S,2S,3S,4R)-2,3-dihydroxy-4-(4-methyl-7H-pyrrolo[2,3-d]pyrimidin-7-yl)cyclopentyl)oxy)benzonitrile] | > 200
24 | Cc1ncnc2c1ccn2[C@H]1C[C@@H](Oc2ccccc2C#N)[C@H](O)[C@@H]1O [Example 65, 2-(((1R,2R,3R,4S)-2,3-dihydroxy-4-(4-methyl-7H-pyrrolo[2,3-d]pyrimidin-7-yl)cyclopentyl)oxy)benzonitrile] | > 200
25 | Cc1ncnc2c1ccn2[C@H]1C[C@@H](Oc2ccc(F)cc2CN)[C@H](O)[C@@H]1O [Example 67, (1R,2R,3R,5S)-3-(2-(aminomethyl)-4-fluorophenoxy)-5-(4-methyl-7H-pyrrolo[2,3-d]pyrimidin-7-yl)cyclopentane-1,2-diol] | > 200
26 | Cc1ncnc2c1ccn2[C@@H]1C[C@H](Oc2ccc(F)cc2C#N)[C@@H](O)[C@H]1O [Example 68, 2-(((1S,2S,3S,4R)-2,3-dihydroxy-4-(4-methyl-7H-pyrrolo[2,3-d]pyrimidin-7-yl)cyclopentyl)oxy)-5-fluorobenzonitrile] | > 200
27 | Cc1ncnc2c1ccn2[C@H]1C[C@@H](Oc2ccc(F)cc2C#N)[C@H](O)[C@@H]1O [Example 69, 2-(((1R,2R,3R,4S)-2,3-dihydroxy-4-(4-methyl-7H-pyrrolo[2,3-d]pyrimidin-7-yl)cyclopentyl)oxy)-5-fluorobenzonitrile] | > 200
28 | Cc1ncnc2c1ccn2[C@@H]1C[C@H](Oc2ccc(F)cc2C(N)=O)[C@@H](O)[C@H]1O [Example 70, 2-(((1S,2S,3S,4R)-2,3-dihydroxy-4-(4-methyl-7H-pyrrolo[2,3-d]pyrimidin-7-yl)cyclopentyl)oxy)-5-fluorobenzamide] | 13.6
